In US20040082635A1, “Fused cyclic compounds and medicinal use thereof” (priority 2001, published 2004):
Where a name gives a salt, the structure may show the parent alone.

Legend:
HCV polymerase = molecular target: T1, HCV polymerase (Hepatitis C virus genotype 1b, UniProt P26663); experiment: biochemical; settings: read-out: HCV polymerase inhibitory activity IC50
T1 construct: a region encoding NS5B (591 amino acids; J Virol 1991 Mar, 65(3), 1105-13) was amplified by PCR; 6 His (N); made in house; host or cells: Escherichia coli

[1] = blood concentration when administered to an animal (statement only, no method); assay type: in vivo; settings: when administered as a pharmaceutical agent to an animal; in words
HCV type 1a = experiment: inhibitory activity on HCV type 1a (statement only, no method); settings: in words
HCV type 1b = experiment: inhibitory activity on HCV type 1b (statement only, no method); settings: in words

T1 sequence (P26663 2420-3010): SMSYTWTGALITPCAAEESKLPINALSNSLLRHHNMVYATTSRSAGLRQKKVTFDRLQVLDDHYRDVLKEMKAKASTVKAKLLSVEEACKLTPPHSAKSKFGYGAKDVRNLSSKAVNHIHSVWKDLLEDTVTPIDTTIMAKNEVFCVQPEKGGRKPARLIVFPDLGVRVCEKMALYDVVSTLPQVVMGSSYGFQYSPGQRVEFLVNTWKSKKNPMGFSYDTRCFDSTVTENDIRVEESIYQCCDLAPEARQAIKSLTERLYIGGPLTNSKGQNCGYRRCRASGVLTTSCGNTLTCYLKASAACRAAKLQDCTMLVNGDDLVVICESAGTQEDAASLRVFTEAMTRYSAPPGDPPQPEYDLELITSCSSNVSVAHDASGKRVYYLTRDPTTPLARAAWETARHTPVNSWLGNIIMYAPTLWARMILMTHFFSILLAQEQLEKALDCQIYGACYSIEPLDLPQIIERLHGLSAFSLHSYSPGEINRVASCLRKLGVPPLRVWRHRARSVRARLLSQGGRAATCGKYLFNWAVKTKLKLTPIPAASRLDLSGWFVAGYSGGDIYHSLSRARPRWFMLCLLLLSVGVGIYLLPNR

In the case of `COc1ccc(-c2ccc(Cl)cc2)c(COc2ccc(-c3nc4cc(C(=O)O)ccc4n3C3CCCCC3)cc2)c1` [Example 9, 2-{4-[2-(4-chlorophenyl)-5-methoxybenzyloxy]phenyl}-1-cyclohexylbenzimidazole-5-carboxylic acid], the IC50 (HCV polymerase) is reported as 19 nM and the melting point is reported as 248 to 249 °C.

`O=C(O)c1ccc2c(c1)nc(-c1ccc(OC(c3cccc(F)c3)c3cccc(F)c3)cc1F)n2C1CCCCC1` [Example 20, 2-{4-(bis[3-fluorophenyl]methoxy)-2-fluorophenyl}-1-cyclohexylbenzimidazole-5-carboxylic acid] gave an IC50 (HCV polymerase) of 42 nM and a melting point of 242 to 243 °C.

`O=C(O)c1ccc2c(c1)nc(-c1ccc(OCc3cc(Cl)ccc3-c3ccc(Cl)cc3)cc1)n2C1CCCCC1` [Example 6] gave a melting point of 243 to 244 °C.

In the case of `O=C(O)c1ccc2c(c1)nc(-c1ccc(Oc3cccc(Br)c3)cc1)n2C1CCCCC1` [Example 2, 2-[4-(3-bromophenoxy)phenyl]-1-cyclohexylbenzimidazole-5-carboxylic acid], the IC50 (HCV polymerase) is reported as 79 nM and the melting point is reported as 255 to 256 °C.

For `O=C(O)c1ccc2c(c1)nc(-c1ccc(Oc3cccc(-c4cccc(Cl)c4)c3)cc1)n2C1CCCCC1` [Example 26, 2-{4-[3-(3-chlorophenyl)phenoxy]phenyl}-1-cyclohexylbenzimidazole-5-carboxylic acid], the IC50 (HCV polymerase) was 33 nM and the melting point was 253 to 254 °C.

For `NC(=O)c1ccc2c(c1)nc(-c1ccc(OCc3ccccc3)cc1)n2C1CCCC1`, the melting point was 232 to 233 °C.

Compound `Cc1nc(-c2ccc(F)cc2)c(COc2ccc(-c3nc4cc(C(=O)O)ccc4n3C3CCCCC3)cc2)s1` [Example 17, 1-cyclohexyl-2-{4-[{4-(4-fluorophenyl)-2-methyl-5-thiazolyl}methoxy]phenyl}benzimidazole-5-carboxylic acid] has an IC50 (HCV polymerase) of 47 nM and a melting point of 196 to 198 °C.

Compound `O=C(O)c1ccc2c(c1)nc(-c1ccc(Oc3cccc(OCc4ccncc4)c3)cc1)n2C1CCCCC1` [Example 30, 1-cyclohexyl-2-{4-[3-(4-pyridylmethoxy)phenyloxy]-phenyl}benzimidazole-5-carboxylic acid] has an IC50 (HCV polymerase) of 52 nM and a melting point of 235 to 237 °C.

`Cl.O=C(O)c1ccc2c(c1)nc(-c1ccc(OCc3cc(N4CCCC4=O)ccc3-c3ccc(Cl)cc3)cc1F)n2C1CCCCC1` gave a melting point of 243 to 246 °C.

In the case of `O=C(O)c1ccc2c(c1)nc(-c1ccc(OCc3cc(C(=O)NC4CCC4)ccc3-c3ccc(Cl)cc3)cc1F)n2C1CCCCC1` [Example 378, 2-{4-[2-(4-chlorophenyl)-5-(cyclobutylcarbamoyl)benzyloxy]-2-fluorophenyl}-1-cyclohexylbenzimidazole-5-carboxylic acid hydrochloride], the IC50 (HCV polymerase) is reported as 18 nM.

In the case of `Cl.O=C(O)c1ccc2c(c1)nc(-c1ccc(OCc3cc(N4CCCC4=O)ccc3-c3ccc(Cl)cc3)cc1F)n2C1CCCCC1` [2-{4-[2-(4-chlorophenyl)-5-(2-oxopyrrolidin-1-yl)benzyloxy]-2-fluorophenyl}-1-cyclohexylbenzimidazole-5-carboxylic acid hydrochloride], the blood concentration [1] is reported as “high blood concentration”, the “inhibitory activity on HCV type 1a” value (HCV type 1a) is reported as “high inhibitory activity” and the “inhibitory activity on HCV type 1b” value (HCV type 1b) is reported as “high inhibitory activity”.

With `O=C(O)c1ccc2c(c1)nc(-c1ccc(Oc3ccccc3OCc3ccccc3)cc1)n2C1CCCCC1` [Example 104, 2-[4-(2-benzyloxyphenoxy)phenyl]-1-cyclohexylbenzimidazole-5-carboxylic acid] the IC50 (HCV polymerase) was 73 nM.

With `Cc1nc(COc2ccc(-c3nc4cc(C(=O)O)ccc4n3C3CCCCC3)cc2)c(-c2ccc(Cl)cc2)o1` [Example 199, 1-cyclohexyl-2-{4-[{2-methyl-5-(4-chlorophenyl)-4-oxazolyl}-methoxy]phenyl}benzimidazole-5-carboxylic acid] the IC50 (HCV polymerase) was 110 nM.

Compound `O=C(O)c1ccc2c(c1)nc(-c1ccc(OCc3cc(C(=O)N4CCSCC4)ccc3-c3ccc(Cl)cc3)cc1F)n2C1CCCCC1` [Example 291, 2-{4-[2-(4-chlorophenyl)-5-thiomorpholinocarbonylbenzyloxy]-2-fluorophenyl}-1-cyclohexylbenzimidazole-5-carboxylic acid] has an IC50 (HCV polymerase) of 16 nM.

`COc1ccc(-c2ccc(Cl)cc2)c(COc2ccc(-c3cc4cc(C(=O)O)ccc4n3C3CCCCC3)cc2)c1` [Example 502, 2-{4-[2-(4-chlorophenyl)-5-methoxybenzyloxy]phenyl}-1-cyclohexyl-1H-indole-5-carboxylate acid] showed an IC50 (HCV polymerase) of 24 nM.

In the case of `Cc1nc(-c2ccc(Cl)cc2)c(COc2ccc(-c3nc4cc(C(=O)O)ccc4n3C3CCCCC3)cc2)s1` [Example 218, 2-{4-[{4-(4-chlorophenyl)-2-methyl-5-thiazolyl}methoxy]phenyl}-1-cyclohexylbenzimidazole-5-carboxylic acid], the IC50 (HCV polymerase) is reported as 33 nM.
